# Measured values taken from PubChem BioAssay AID1963829 (Molecular Pharmacology Branch, DTP, NCI, 2024).
# Test system: 935938-334-R-J1-PDC complex spheroid viability
# Test: Anticancer human tumor 935938-334-R-J1-PDC patient-derived small intestine adenocarcinoma cell line growth inhibition [POLQ]
# Conditions: second compound 3.16 µM; first compound 0.00316 µM; active compounds read low
# Protocol: Multicellular complex tumor spheroid response to Polymerase (POL) inhibitors (novobiocin, ART-558, RP6685) in combination with a variety of drugs and investigational agents in selected tumor cell lines
# The POL inhibitors (novobiocin, ART-558, and RP6685) were evaluated both individually and in combination with standard of care and investigational anticancer small molecules within a complex spheroid model of solid tumors. . Complex spheroids include a stromal component modeled by human endothelial cells (HUVEC) and fibroblasts modeled by human mesenchymal stem cells (MSCs). The concentration ranges selected for each drug and investigational agent were based upon clinically achievable concentrations if the clinical Cmax of the agent was known.
# Compounds. The drugs and investigational agents: novobiocin (NSC847541), ART-558 (NSC835418), RP-6685 (NSC848927), peposertib (NSC802822), ceralasertib (NSC780249), elimusertib (NSC800525), camonsertib (NSC841442), AZD-1390 (NSC803789), olaparib (NSC753686), talazoparib (NSC767125), rucaparib (NSC756644), sotorasib (NSC818433), MRTX-1133 (NSC836407), SN-38 (NSC673596), topotecan (NSC609699), epotoside (NSC141540), doxorubicin (NSC123127), gemcitabine (NSC613327), 5-fluorouracil (NSC19893), paclitaxel (NSC125973), vemurafenib (NSC761431), MSA-2 (NSC828583), SN-011 (NSC837082), adavosertib (NSC754352), prexasertib (NSC758257), carboplatin (NSC241240) and oxaliplatin (NSC266046), were obtained from the National Cancer Institute (NCI) Developmental Therapeutics Program Chemical Repository (21). The FDA-approved anticancer drug set is available from the Developmental Therapeutics Program at https://dtp.cancer.gov/organization/dscb/obtaining/. […] The stock solutions were prepared in dimethyl sulfoxide (DMSO, Sigma-Aldrich, St. Louis, MO, cat. D2650), except for the platinum compounds which were prepared in saline (Quality Biological, Gaithersburg, MD, cat. 114-055-101), at 800-fold the tested concentration and stored at -70 degrees C prior to their use. All drugs and investigational agents were tested over a range starting from a high concentration at or near the clinical Cmax and decreasing in half-log increments. If the clinical Cmax for an agent had not been determined, the highest concentration tested was 10 microM, except for SN-38, which was tested at a high concentration of 1 microM.
# Cell Culture. All cells were maintained in an incubator at 37 degrees C and 5% CO2 with 95% humidity. The PDC lines were cultured according to standard operating procedures established by the NCI PDMR (https://pdmr.cancer.gov). Table 3 of the manuscript, lists the cell lines along with the number of the three cell types plated to form the mct-spheroids and media for tumor cell growth. After thawing, all PDC lines, except 997537-175-T-J1-PDC and 415267-285-R-J2-PDC, were cultured in Matrigel-coated flasks prepared with a working solution of 1X Ham's F-12 nutrient mix, without supplementation (Thermo Fisher Scientific, cat. 11765054), 100 U/mL penicillin-streptomycin (Thermo Fisher Scientific, cat. 15140122), and 2.5% Matrigel (Corning Inc., Corning, NY, cat. 354248) for the first three passages. The two PDC lines 997537-175-T-J1-PDC and 415267-285-R-J2-PDC were cultured on uncoated flasks. The 857933-349-R-J2-PDC line was cultured in 6C/Colon 1B media containing advanced DMEM/F-12 (Thermo Fisher Scientific, cat. 12634028), 10 mM HEPES (Thermo Fisher Scientific, cat. 15630080), 1X GlutaMAX supplement (Thermo Fisher Scientific, cat. 35050061), 0.1 mg/mL primocin (InvivoGen, San Diego, CA, cat. ant-pm-2), 10% defined fetal bovine serum, heat inactivated (HyClone Laboratories Inc., Logan, UT, cat. SH30070.03HI), 50% L-WRN conditioned media (ATCC, cat. CRL-3276), 1.25 mM N-Acetyl-L-cysteine (Sigma-Aldrich, cat. A9165), 10 mM nicotinamide (Sigma-Aldrich, cat. N0636), 1X B-27 supplement (Thermo Fisher Scientific, cat. 17504044), 1X N-2 supplement (Thermo Fisher Scientific, cat. […]
# 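Note: spheroids exposed to drugs for seven days before viability read; 100% = DMSO vehicle control wells.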
row,SMILES,"viability, T/C"
1,CCc1c2c(nc3ccc(O)cc13)-c1cc3c(c(=O)n1C2)COC(=O)[C@]3(O)CC + Cc1cccc(N(C)C(=O)C2C(O)CCN2c2nc(C)cc(C(F)(F)F)c2C#N)c1,87.6%

# Same assay, conditions: second compound 3.16 µM; first compound 0.01 µM; active compounds read low
row,SMILES,"viability, T/C"
1,CCc1c2c(nc3ccc(O)cc13)-c1cc3c(c(=O)n1C2)COC(=O)[C@]3(O)CC + Cc1cccc(N(C)C(=O)C2C(O)CCN2c2nc(C)cc(C(F)(F)F)c2C#N)c1,85.3%

# Same assay, conditions: second compound 3.16 µM; first compound 0.0316 µM; active compounds read low
row,SMILES,"viability, T/C"
1,CCc1c2c(nc3ccc(O)cc13)-c1cc3c(c(=O)n1C2)COC(=O)[C@]3(O)CC + Cc1cccc(N(C)C(=O)C2C(O)CCN2c2nc(C)cc(C(F)(F)F)c2C#N)c1,39.4%
2,O=c1[nH]cc(F)c(=O)[nH]1 + COC1C(OC(N)=O)C(O)C(Oc2ccc3c(O)c(NC(=O)c4ccc(O)c(CC=C(C)C)c4)c(=O)oc3c2C)OC1(C)C,87.8%
3,COc1cc2cc(C(=O)CCC(=O)O)sc2cc1OC + Nc1ccc(C#CCN(C(=O)Cc2ncc(C(F)(F)F)cc2C(F)(F)F)c2ccc(F)cc2)nn1,108%
4,C#Cc1c(F)ccc2cc(O)cc(-c3ncc4c(N5CC6CCC(C5)N6)nc(OCC56CCCN5CC(F)C6)nc4c3F)c12 (centres undefined) + Cc1cccc(N(C)C(=O)C2C(O)CCN2c2nc(C)cc(C(F)(F)F)c2C#N)c1,72.5%

# Same assay, conditions: second compound 3.16 µM; first compound 0.1 µM; active compounds read low
row,SMILES,"viability, T/C"
1,CCc1c2c(nc3ccc(O)cc13)-c1cc3c(c(=O)n1C2)COC(=O)[C@]3(O)CC + Cc1cccc(N(C)C(=O)C2C(O)CCN2c2nc(C)cc(C(F)(F)F)c2C#N)c1,37.7%
2,O=c1[nH]cc(F)c(=O)[nH]1 + COC1C(OC(N)=O)C(O)C(Oc2ccc3c(O)c(NC(=O)c4ccc(O)c(CC=C(C)C)c4)c(=O)oc3c2C)OC1(C)C,82.5%
3,COc1cc2cc(C(=O)CCC(=O)O)sc2cc1OC + Nc1ccc(C#CCN(C(=O)Cc2ncc(C(F)(F)F)cc2C(F)(F)F)c2ccc(F)cc2)nn1,90.9%
4,C#Cc1c(F)ccc2cc(O)cc(-c3ncc4c(N5CC6CCC(C5)N6)nc(OCC56CCCN5CC(F)C6)nc4c3F)c12 (centres undefined) + Cc1cccc(N(C)C(=O)C2C(O)CCN2c2nc(C)cc(C(F)(F)F)c2C#N)c1,81.1%

# Same assay, conditions: second compound 3.16 µM; first compound 0.316 µM; active compounds read low
row,SMILES,"viability, T/C"
1,CCc1c2c(nc3ccc(O)cc13)-c1cc3c(c(=O)n1C2)COC(=O)[C@]3(O)CC + Cc1cccc(N(C)C(=O)C2C(O)CCN2c2nc(C)cc(C(F)(F)F)c2C#N)c1,39.3%
2,O=c1[nH]cc(F)c(=O)[nH]1 + COC1C(OC(N)=O)C(O)C(Oc2ccc3c(O)c(NC(=O)c4ccc(O)c(CC=C(C)C)c4)c(=O)oc3c2C)OC1(C)C,73.3%
3,COc1cc2cc(C(=O)CCC(=O)O)sc2cc1OC + Nc1ccc(C#CCN(C(=O)Cc2ncc(C(F)(F)F)cc2C(F)(F)F)c2ccc(F)cc2)nn1,84.1%
4,C#Cc1c(F)ccc2cc(O)cc(-c3ncc4c(N5CC6CCC(C5)N6)nc(OCC56CCCN5CC(F)C6)nc4c3F)c12 (centres undefined) + Cc1cccc(N(C)C(=O)C2C(O)CCN2c2nc(C)cc(C(F)(F)F)c2C#N)c1,54.4%

# Same assay, conditions: second compound 3.16 µM; first compound 1 µM; active compounds read low
row,SMILES,"viability, T/C"
1,CCc1c2c(nc3ccc(O)cc13)-c1cc3c(c(=O)n1C2)COC(=O)[C@]3(O)CC + Cc1cccc(N(C)C(=O)C2C(O)CCN2c2nc(C)cc(C(F)(F)F)c2C#N)c1,31.7%
2,O=c1[nH]cc(F)c(=O)[nH]1 + COC1C(OC(N)=O)C(O)C(Oc2ccc3c(O)c(NC(=O)c4ccc(O)c(CC=C(C)C)c4)c(=O)oc3c2C)OC1(C)C,64.4%
3,COc1cc2cc(C(=O)CCC(=O)O)sc2cc1OC + Nc1ccc(C#CCN(C(=O)Cc2ncc(C(F)(F)F)cc2C(F)(F)F)c2ccc(F)cc2)nn1,105%
4,C#Cc1c(F)ccc2cc(O)cc(-c3ncc4c(N5CC6CCC(C5)N6)nc(OCC56CCCN5CC(F)C6)nc4c3F)c12 (centres undefined) + Cc1cccc(N(C)C(=O)C2C(O)CCN2c2nc(C)cc(C(F)(F)F)c2C#N)c1,70.7%

# Same assay, conditions: second compound 3.16 µM; first compound 3.16 µM; active compounds read low
row,SMILES,"viability, T/C"
1,O=c1[nH]cc(F)c(=O)[nH]1 + COC1C(OC(N)=O)C(O)C(Oc2ccc3c(O)c(NC(=O)c4ccc(O)c(CC=C(C)C)c4)c(=O)oc3c2C)OC1(C)C,58%
2,COc1cc2cc(C(=O)CCC(=O)O)sc2cc1OC + Nc1ccc(C#CCN(C(=O)Cc2ncc(C(F)(F)F)cc2C(F)(F)F)c2ccc(F)cc2)nn1,103%
3,C#Cc1c(F)ccc2cc(O)cc(-c3ncc4c(N5CC6CCC(C5)N6)nc(OCC56CCCN5CC(F)C6)nc4c3F)c12 (centres undefined) + Cc1cccc(N(C)C(=O)C2C(O)CCN2c2nc(C)cc(C(F)(F)F)c2C#N)c1,37.3%

# Same assay, conditions: second compound 3.16 µM; first compound 10 µM; active compounds read low
row,SMILES,"viability, T/C"
1,O=c1[nH]cc(F)c(=O)[nH]1 + COC1C(OC(N)=O)C(O)C(Oc2ccc3c(O)c(NC(=O)c4ccc(O)c(CC=C(C)C)c4)c(=O)oc3c2C)OC1(C)C,48%
2,COc1cc2cc(C(=O)CCC(=O)O)sc2cc1OC + Nc1ccc(C#CCN(C(=O)Cc2ncc(C(F)(F)F)cc2C(F)(F)F)c2ccc(F)cc2)nn1,81.1%
3,C#Cc1c(F)ccc2cc(O)cc(-c3ncc4c(N5CC6CCC(C5)N6)nc(OCC56CCCN5CC(F)C6)nc4c3F)c12 (centres undefined) + Cc1cccc(N(C)C(=O)C2C(O)CCN2c2nc(C)cc(C(F)(F)F)c2C#N)c1,31.8%
